Data taken from patent US12516016B2, “GPX4 inhibitors, pharmaceutical compositions thereof, and their use for treating GPX4-mediated diseases” (EUBULUS BIOTHERAPEUTICS (HONG KONG) LIMITED, priority 2020, dated 2026).

Columns and labels:
Assay type in all cases: cell-based
[1] = test system: hepatocellular carcinoma cell line Hub-7; experiment: Cell proliferation assay (CELL-TITER GLO cell viability); conditions: Hub-7 cells, 24 h incubation
Outline: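 […] cells (4,000/well) seeded overnight, then exposed 24 h to compound from 10 μM in 3-fold serial dilutions. Viability read by CELL-TITER GLO luminescence; EC50 values derived.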

[2] = test system: hepatocellular carcinoma cell line Hub-7; experiment: Anti-proliferation activity in the presence of a ferroptosis inhibitor
Method: (§1) The activity of a test compound was determined in a cell proliferation assay using the hepatocellular carcinoma cell line […]. Cells (4,000 cells per well) were seeded in a 96-well tissue culture plate. After incubated overnight, a test compound was added at predetermined concentrations, starting with 10 μM and followed by 3-fold serial dilution. After the cells were incubated for 24 h, cell viability was determined using a CELL-TITER GLO® assay. The CELL-TITER GLO® reagent (50 μL) was added to each well and the luminescence was measured by a multimode microplate reader after a brief period of shaking. EC50 values were determined for the test compound. The results are summarized in Table 1, wherein A represents a value no greater than 100 nM, B represents a value greater than 100 nM but no greater than 500 nM, C represents a value greater than 500 nM but no greater than 2 μM, D represents a value greater than 2 μM but no greater than 10 μM; and E represents a value greater than 10 μM.
(§2) The anti-proliferation activity of compound 80 was tested in the presence of an ferroptosis inhibitor, ferrostatin-1 (1 μM) or liproxstatin-1 (1 μM).

[3] = test system: hepatocellular carcinoma cell line; experiment: as above; conditions: in the presence of ferrostatin-1 (1 μM); read-out: Inhibition of Cell Proliferation EC50, Ferrostatin-1
Method: as §1, §2

[4] = 24 h, read-out: Inhibition of Cell Proliferation EC50
[5] = read-out: Inhibition of Cell Proliferation EC50

SMILES | EC50 [1, 4] [µM] | also measured
C#CC(=O)N(c1cccc(Cl)c1)C1(C(=O)NCc2ccccc2)CCOCC1 [A80, N-Benzyl-4-(N-(3-chlorophenyl)propiolamido)tetrahydro-2H-pyran-4-carboxamide] | ≤ 0.1 | EC50 ([2]; in the presence of liproxstatin-1 (1 μM), read-out: Inhibition of Cell Proliferation EC50, Liproxstatin-1): > 10 µM; EC50 ([2]; read-out: Inhibition of Cell Proliferation EC50, No Ferroptosis inhibitor): ≤ 0.1 µM; EC50 [3]: > 10 µM
O=C(NCCc1ccccc1)C(c1ccc([N+](=O)[O-])cc1)N(C(=O)CCl)c1cccc(O)c1 (stereo not drawn) [C9, 2-Chloro-N-(3-hydroxyphenyl)-N-(1-(4-nitrophenyl)-2-oxo-2-(phenethylamino)-ethyl)acetamide] | 2 to 10 | 
COc1cccc(N(C(=O)CCl)C(C(=O)NCCc2ccccc2)c2ccc([N+](=O)[O-])cc2)c1 (stereo not drawn) [C10, 2-Chloro-N-(3-methoxyphenyl)-N-(1-(4-nitrophenyl)-2-oxo-2-(phenethylamino)-ethyl)acetamide] | 0.1 to 0.5 | 
CC(=O)Nc1cccc(N(C(=O)CCl)C(C(=O)NCCc2ccccc2)c2ccc([N+](=O)[O-])cc2)c1 (stereo not drawn) [C11, N-(3-Acetamidophenyl)-2-chloro-N-(1-(4-nitrophenyl)-2-oxo-2-(phenethyl-amino)ethyl)acetamide] | 2 to 10 | 
O=C(NCCc1ccccc1)C(c1ccc([N+](=O)[O-])cc1)N(Cc1ccccc1)C(=O)CCl (stereo not drawn) [C12, N-Benzyl-2-chloro-N-(1-(4-nitrophenyl)-2-oxo-2-(phenethylamino)ethyl)-acetamide] | 2 to 10 | 
Nc1cccc(N(C(=O)CCl)C(C(=O)NCCc2ccccc2)c2cccs2)c1 (stereo not drawn) [C13] |  | EC50 [1, 5]: 2 to 10 µM
COc1ccc(N(C(=O)CCl)C(C)C(=O)NCCc2ccccc2)cc1Cl (stereo not drawn) [C14] | 0.5 to 2 | 
O=C(CCl)N(c1ccc2c(c1)OCO2)C1(C(=O)NCc2ccccc2)CCOCC1 [C19, 4-(N-(Benzo[d][1,3]dioxol-5-yl)-2-chloroacetamido)-N-benzyltetrahydro-2H-pyran-4-carboxamide] | 2 to 10 | 
COc1ccc(N(C(=O)CCl)C2(C(=O)NCCc3ccccc3)CCC(F)(F)CC2)cc1Cl [C20, 1-(2-Chloro-N-(3-chloro-4-methoxyphenyl)acetamido)-4,4-difluoro-N-phenethyl-cyclohexane-1-carboxamide] | 0.1 to 0.5 | 
Cn1ncc2cc(N(C(=O)CCl)C3(C(=O)NCc4ccccc4)CCOCC3)ccc21 [C21, N-Benzyl-4-(2-chloro-N-(1-methyl-1H-indazol-5-yl)acetamido)tetrahydro-2H-pyran-4-carboxamide] | 0.5 to 2 | 
Cn1ncc2cc(N(C(=O)CCl)C3(C(=O)NCCc4ccccc4)CCOCC3)ccc21 [C22, 4-(2-Chloro-N-(1-methyl-1H-indazol-5-yl)acetamido)-N-phenethyltetrahydro-2H-pyran-4-carboxamide] | 0.5 to 2 | 
CC(Cl)C(=O)N(c1ccc2c(cnn2C)c1)C1(C(=O)NCc2ccccc2)CCOCC1 (stereo not drawn) [C24, N-Benzyl-4-(2-chloro-N-(1-methyl-1H-indazol-5-yl)propanamido)tetrahydro-2H-pyran-4-carboxamide] | > 10 | 
COc1ccc(N(C(=O)CCl)C2(C(=O)NCc3ccccc3)CCOCC2)cc1Cl [C25, N-Benzyl-4-(2-chloro-N-(3-chloro-4-methoxyphenyl)acetamido)tetrahydro-2H-pyran-4-carboxamide] | 0.1 to 0.5 | 
COc1ccc(N(C(=O)CCl)C2(C(=O)NCCc3ccccc3)CCOCC2)cc1Cl [C26, 4-(2-Chloro-N-(3-chloro-4-methoxyphenyl)acetamido)-N-phenethyltetrahydro-2H-pyran-4-carboxamide] | ≤ 0.1 | 
COc1ccc(N(C(=O)CCl)C2(C(=O)NCc3ccccc3)CCC(F)(F)CC2)cc1Cl [C27, N-Benzyl-1-(2-chloro-N-(3-chloro-4-methoxyphenyl)acetamido)-4,4-difluoro-cyclohexane-1-carboxamide] | ≤ 0.1 | 
O=C(CCl)N(c1cccc2nsnc12)C1(C(=O)NCc2ccccc2)CCOCC1 [C28, 4-(N-(Benzo[c][1,2,5]thiadiazol-4-yl)-2-chloroacetamido)-N-benzyltetrahydro-2H-pyran-4-carboxamide] | 0.1 to 0.5 | 
O=C(CCl)N(c1cccc2nsnc12)C1(C(=O)NCCc2ccccc2)CCOCC1 [C29, 4-(N-(Benzo[c][1,2,5]thiadiazol-4-yl)-2-chloroacetamido)-N-phenethyltetrahydro-2H-pyran-4-carboxamide] | 0.5 to 2 | 
Cn1ncc2cc(N(C(=O)C3CO3)C3(C(=O)NCc4ccccc4)CCOCC3)ccc21 (stereo not drawn) [C30, N-Benzyl-4-(N-(1-methyl-1H-indazol-5-yl)oxirane-2-carboxamido)tetrahydro-2H-pyran-4-carboxamide] | > 10 | 
Cn1ncc2cc(N(C(=O)C(F)F)C3(C(=O)NCc4ccccc4)CCOCC3)ccc21 [D1, N-Benzyl-4-(2,2-difluoro-N-(1-methyl-1H-indazol-5-yl)acetamido)tetrahydro-2H-pyran-4-carboxamide] | > 10 | 
CC(=O)N(c1ccc2c(cnn2C)c1)C1(C(=O)NCc2ccccc2)CCCOC1 (stereo not drawn) [D2, N-Benzyl-3-(N-(1-methyl-1H-indazol-5-yl)acetamido)tetrahydro-2H-pyran-3-carboxamide] | > 10 | 
Cn1ncc2cc(N(C(=O)CO)C3(C(=O)NCc4ccccc4)CCOCC3)ccc21 [D3, N-Benzyl-4-(2-hydroxy-N-(1-methyl-1H-indazol-5-yl)acetamido)tetrahydro-2H-pyran-4-carboxamide] | > 10 | 
CCC(=O)N(c1cccc(Cl)c1)C(C(=O)NCc1ccccc1)c1ccc(N)cc1 (stereo not drawn) [D4, N-(1-(4-Aminophenyl)-2-(benzylamino)-2-oxoethyl)-N-(3-chlorophenyl)-propionamide] | > 10 | 
Cn1ncc2cc(N(C(=O)CCCl)C3(C(=O)NCc4ccccc4)CCOCC3)ccc21 [D5, N-Benzyl-4-(3-chloro-N-(1-methyl-1H-indazol-5-yl)propanamido)tetrahydro-2H-pyran-4-carboxamide] | > 10 | 
Cn1ncc2cc(N(C(=O)CCBr)C3(C(=O)NCc4ccccc4)CCOCC3)ccc21 [D6, N-Benzyl-4-(3-bromo-N-(1-methyl-1H-indazol-5-yl)propanamido)tetrahydro-2H-pyran-4-carboxamide] | > 10 | 
N#CCC(=O)N(c1cccc(Cl)c1)C1(C(=O)NCc2ccccc2)CCOCC1 [D7, N-Benzyl-4-(N-(3-chlorophenyl)-2-cyanoacetamido)tetrahydro-2H-pyran-4-carboxamide] | > 10 | 
COc1ccc(N(C(=O)CCl)C(C(=O)NCCc2ccccc2)c2cccs2)cc1Cl (stereo not drawn) [ML-162, reference compound] |  | EC50 ([1]; control, read-out: EC50): 0.138 µM; EC50 [1, 5]: 0.1 to 0.5 µM
